Measured values from PMC6600542 (Molecules, 2019).

Experiments:
normal human plasma [1] = assay: APTT clotting assay, normal human plasma; format: biochemical
Procedure: (§1) For the PT assay, thromboplastin-D was reconstituted according to the manufacturer’s directions and warmed to 37 °C. […] After incubation for 4 min at 37 °C, clotting was initiated by adding 100 μL of prewarmed 25 mM CaCl2 and the time to clotting was noted. […] To determine the in vitro effect on the APTT of deficient human plasmas, the APTT assay was repeated, using human plasmas deficient of factor VII (FVII), factor IX (FIX), FXI, or factor XII (FXII). […] The positive control used in APTT and PT assays was rivaroxaban, a clinically used FXa inhibitor. Under the conditions reported, rivaroxaban doubled the APTT and PT at concentrations of 0.123 ± 0.003 µM and 0.193 ± 0.043 µM, respectively.

normal human plasma [2] = conditions: cited from earlier work
normal human plasma [3] = assay: PT clotting assay, normal human plasma; format: biochemical; conditions: normal human plasma (text)
Procedure: as §1

Row | SMILES | effect on the APTT (normal human plasma [1]; normal human plasma, highest concentration tested of 33.3 mM) | effect on TT (normal human plasma [2]) | concentration to double the APTT (normal human plasma [1]; normal human plasma (text)) [µM] | concentration to double the PT (normal human plasma [3]) [µM]
1 | O=S(=O)(O)CCO [isethionic acid] | did not affect the APTT |  |  | 
2 | O=C(NC[C@H]1CN(c2ccc(N3CCOCC3=O)cc2)C(=O)O1)c1ccc(Cl)s1 [rivaroxaban] |  | no effect on TT | 0.123 ± 0.003 | 0.193 ± 0.043
